Assay results taken from paper PMC3612894 (Journal of medicinal chemistry, 2013).

Tested on: T. cruzi
Experiment: T. cruzi in vitro inhibition assay
Assay type: cell-based, Trypanosoma cruzi
Conditions: host cells NIH 3T3

Clc1ccc(COc2cccc(Cn3ccnc3)c2)cc1 [Compound 4j, 1-(3-((4-chlorobenzyl)oxy)benzyl)-1H-imidazole] was tested, and the “selectivity over host cells” value was “greater than 160 fold”.
In the case of Cc1cc(Oc2cccc(Cn3ccnc3)c2)cc(C)c1Cl [Compound 4c, 1-(3-(4-chloro-3,5-dimethylphenoxy)benzyl)-1H-imidazole], the “selectivity over host cells” value is reported as “greater than 160 fold”.
